Data taken from patent US20220125771A1, “S[…], ANALOGUES THEREOF, AND METHODS USING SAME” (priority 2019, published 2022).
Like-named read-outs stand apart in the source and are kept apart here.

Test system: HBsAg in HepG2.2.15 cells
Assay: HBsAg Assay: inhibition of HBsAg in HepG2.2.15 cells (CLIA immunoassay of supernatant)
Assay type: cell-based, hepatitis B virus
Conditions: supernatant collected at day 6 after exposure of compounds, final DMSO 0.5%
Procedure: Inhibition of HBsAg was determined in HepG2.2.15 cells. Cells were maintained in culture medium containing 10% fetal calf serum, […], Glutamine, penicillin/streptomycin. Cells were seeded in 96-well collagen-coated plate at a density of 30,000 cells/well. Serially diluted compounds were added to cells next day at the final DMSO concentration of 0.5%. Cells were incubated with compounds for 2-3 days, after which medium was removed. Fresh medium containing compounds was added to cells for additional 3-4 days. At day 6 after exposure of compounds, supernatant was collected, the HBsAg immunoassay (microplate-based chemiluminescence immunoassay kits, CLIA, Autobio Diagnosics Co., Zhengzhou, China, Catalog #CL0310-2) was used to determine the level of HBsAg according to manufactory instruction. Dose-response curves were generated and the EC50 value (effective concentrations that achieved 50% inhibitory effect) were determined using XLfit software. In addition, cells were seeded at a density of 5,000 cells/well for determination of cell viability in the presence and absence of compounds by using CellTiter-Glo reagent (Promega). Tables 1-3 show EC50 values obtained by the HBsAg assay for selected compounds.

[1] = read-out: sAg EC50, HepG2.2.15 cells
[2] = Hepatitis B virus, HepG2.2.15, 144 h, read-out: sAg EC50, μM, HepG2.2.15 cells

Row | SMILES | EC50 [1] [µM] | EC50 [2] [µM]
1 | COc1ccn2c3c(nc2c1OC)-c1c(cc(C(=O)O)c(=O)n1C)C(C(C)(C)C)C3 (single isomer, unassigned) [Example 22, 5-(tert-Butyl)-10,11-dimethoxy-1-methyl-2-oxo-1,2,5,6-tetrahydropyrido[2′,1′:2,3]imidazo[4,5-h]quinoline-3-carboxylic Acid] | 0.11 | 
2 | Cn1c2c(cc(C(=O)O)c1=O)C(C(C)(C)C)Cc1c-2nc(Cl)c2ccccc12 (single isomer, unassigned) [Example 44, 12-(tert-Butyl)-6-chloro-4-methyl-3-oxo-3,4,11,12-tetrahydrobenzo[c][1,10]phenanthroline-2-carboxylic Acid] | 0.009 | 
3 | CC(C)(C)C1Cc2c(nc3c(OC(F)F)cccn23)-c2[nH]c(=O)c(C(=O)O)cc21 (single isomer, unassigned) [Example 11, 5-(tert-Butyl)-11-(difluoromethoxy)-2-oxo-1,2,5,6-tetrahydropyrido[2′,1′:2,3]imidazo[4,5-h]quinoline-3-carboxylic Acid] | 27 | 
4 | COc1cc2c(c3cccnc13)CC(C(C)(C)C)c1cc(C(=O)O)c(=O)[nH]c1-2 (single isomer, unassigned) [Example 36, 6-(tert-Butyl)-12-methoxy-9-oxo-5,6,9,10-tetrahydroquinolino[7,8-f]quinoline-8-carboxylic Acid] | 5.2 | 
5 | CCN1CCCc2c3c(cc(OC(F)F)c21)-c1[nH]c(=O)c(C(=O)O)cc1C(C(C)(C)C)C3 (stereo not shown) [Example 34, 6-(tert-Butyl)-12-(difluoromethoxy)-1-ethyl-9-oxo-1,2,3,4,5,6,9,10-octahydroquinolino[7,8-f]quinoline-8-carboxylic Acid] |  | 0.012
6 | COc1nc2c(c3ccccc13)CC(C(C)(C)C)c1cc(C(=O)O)c(=O)[nH]c1-2 (single isomer, unassigned) [Example 41, 12-(tert-Butyl)-6-methoxy-3-oxo-3,4,11,12-tetrahydrobenzo[c][1,10]phenanthroline-2-carboxylic Acid] | 0.001 | 
7 | CC(C)(C)C1Cc2c(nc3c(OC(F)F)cccn23)-c2[nH]c(=O)c(C(=O)O)cc21 (single isomer, unassigned) [Example 10, 5-(tert-Butyl)-11-(difluoromethoxy)-2-oxo-1,2,5,6-tetrahydropyrido[2′,1′:2,3]imidazo[4,5-h]quinoline-3-carboxylic Acid] | 0.003 | 
8 | COc1ccn2c3c(nc2c1OC)-c1[nH]c(=O)c(C(=O)O)cc1C(C(C)(C)C)C3 (single isomer, unassigned) [Example 19, 5-(tert-Butyl)-10,11-dimethoxy-2-oxo-1,2,5,6-tetrahydropyrido[2′,1′:2,3]imidazo[4,5-h]quinoline-3-carboxylic Acid] | 8 | 
9 | CN1CCCc2c3c(cc(OC(F)F)c21)-c1[nH]c(=O)c(C(=O)O)cc1C(C(C)(C)C)C3 (single isomer, unassigned) [Example 33, 6-(tert-Butyl)-12-(difluoromethoxy)-1-methyl-9-oxo-1,2,3,4,5,6,9,10-octahydroquinolino[7,8-f]quinoline-8-carboxylic Acid] | 0.3 | 
10 | COc1cccn2c3c(nc12)-c1[nH]c(=O)c(C(=O)O)cc1C(C(C)(C)C)C3 (single isomer, unassigned) [Example 14, 5-(tert-Butyl)-11-methoxy-2-oxo-1,2,5,6-tetrahydropyrido[2′,1′:2,3]imidazo[4,5-h]quinoline-3-carboxylic Acid] | 0.012 | 
11 | COc1[nH]c2c(c(=O)c1C(=O)O)C(C(C)(C)C)Cc1c-2cc(OC(F)F)c2ncccc12 (stereo not shown) [Example 47, 6-(tert-butyl)-12-(difluoromethoxy)-9-methoxy-7-oxo-5,6,7,10-tetrahydroquinolino[7,8-f]quinoline-8-carboxylic Acid] |  | 0.14
12 | CC(C)C1Cc2c(nc3c(OC(F)F)cccn23)-c2[nH]c(=O)c(C(=O)O)cc21 (single isomer, unassigned) [Example 13, 11-(Difluoromethoxy)-5-isopropyl-2-oxo-1,2,5,6-tetrahydropyrido[2′,1′:2,3]imidazo[4,5-h]quinoline-3-carboxylic Acid] | 1.1 | 
13 | CC(C)(C)C1Cc2c(cc(OC(F)F)c3ncccc23)-c2[nH]c(=O)c(C(=O)O)c(O)c21 (stereo not shown) [Example 29, 6-(tert-Butyl)-12-(difluoromethoxy)-7-hydroxy-9-oxo-5,6,9,10-tetrahydroquinolino[7,8-f]quinoline-8-carboxylic Acid] |  | 0.001
14 | CC(C)(C)C1Cc2c(cc(OC(F)F)c3ncccc23)-c2[nH]c(=O)c(C(=O)O)cc21 (single isomer, unassigned) [Example 38, 6-(tert-butyl)-12-(difluoromethoxy)-9-oxo-5,6,9,10-tetrahydroquinolino[7,8-f]quinoline-8-carboxylic Acid] | 3 | 
15 | COc1nc2c(c3ccccc13)CC(C(C)(C)C)c1cc(C(=O)O)c(=O)[nH]c1-2 (single isomer, unassigned) [Example 42, 12-(tert-Butyl)-6-methoxy-3-oxo-3,4,11,12-tetrahydrobenzo[c][1,10]phenanthroline-2-carboxylic Acid] | 0.075 | 
16 | CC(C)(C)C1Cn2c(cc3c(OC(F)F)cccc32)-c2[nH]c(=O)c(C(=O)O)c(O)c21 (stereo not shown) [Example 1, 5-(tert-Butyl)-11-(difluoromethoxy)-4-hydroxy-2-oxo-1,2,5,6-tetrahydroindolo[1,2-h][1,7]naphthyridine-3-carboxylic Acid] |  | 0.009
17 | COc1cccc2c1nc1n2CC(C(C)(C)C)c2cc(C(=O)O)c(=O)[nH]c2-1 (single isomer, unassigned) [Example 27, 5-(tert-Butyl)-11-methoxy-2-oxo-1,2,5,6-tetrahydrobenzo[4,5]imidazo[1,2-h][1,7]naphthyridine-3-carboxylic Acid] | 10 | 
18 | COc1cccn2c3c(nc12)-c1[nH]c(=O)c(C(=O)O)cc1C(C(C)(C)C)C3 (single isomer, unassigned) [Example 15, 5-(tert-Butyl)-11-methoxy-2-oxo-1,2,5,6-tetrahydropyrido[2′,1′:2,3]imidazo[4,5-h]quinoline-3-carboxylic Acid] | 1 | 
19 | CC(C)(C)C1Cn2c(nc3c(OC(F)F)cccc32)-c2[nH]c(=O)c(C(=O)O)c(O)c21 (stereo not shown) [Example 25, 5-(tert-Butyl)-11-(difluoromethoxy)-4-hydroxy-2-oxo-1,2,5,6-tetrahydrobenzo[4,5]imidazo[1,2-h][1,7]naphthyridine-3-carboxylic Acid] |  | 0.004
20 | CC(C)(C)C1Cc2c(cc(OC(F)F)c3c2CCCN3)-c2[nH]c(=O)c(C(=O)O)c(O)c21 (stereo not shown) [Example 9, 6-(tert-Butyl)-12-(difluoromethoxy)-7-hydroxy-9-oxo-1,2,3,4,5,6,9,10-octahydroquinolino[7,8-f]quinoline-8-carboxylic Acid] |  | 0.011
21 | CC(C)C1Cc2cc(C(=O)O)c(=O)[nH]c2-c2nc3c(OC(F)F)cccn3c21 (single isomer, unassigned) [Example 20, 11-(Difluoromethoxy)-6-isopropyl-2-oxo-1,2,5,6-tetrahydropyrido[2′,1′:2,3]imidazo[4,5-h]quinoline-3-carboxylic Acid] | 0.099 | 
22 | COc1cccn2c3c(nc12)-c1[nH]c(=O)c(C(=O)O)cc1C(C(C)C)C3 (single isomer, unassigned) [Example 16, 5-Isopropyl-11-methoxy-2-oxo-1,2,5,6-tetrahydropyrido[2′,1′:2,3]imidazo[4,5-h]quinoline-3-carboxylic Acid] | 0.048 | 
